{
  "source": "patent US20220040263A1",
  "about": "“COMPANION DIAGNOSTIC FOR COMBINATION LENALIDOMIDE AND ERYTHROPOIETIN TREATMENT” (H. Lee Moffitt Cancer Center and Research Institute, Inc., priority 2016, published 2022)",
  "key": {"STAT5": {"system": "STAT5", "assay": "STAT5 phosphorylation in UT7 cells by Western immunoblot", "assay_type": "cell-based", "experimental": "FIGS. 2A and 2B show potentiation of STAT 5 activation by lenalidomide. […] Whole cell lysates were assayed for actin (Sigma), STAT5 and phospho-STAT5 (Cell Signaling) by Western immunoblot as previously described. […] K562 leukemia cells served as a positive control.\nTo determine if lenalidomide modulates EPO-R signaling to enhance cytokine induced clonogenic response, STAT5 phosphorylation and its nuclear trans-activation was evaluated after treatment with either lenalidomide or EPO alone, or the combination [FIG. 2A]."}, "[1]": {"system": "LR non-del(5q) MDS patients refractory to, or not candidates for, rhEpo", "assay": "Randomized phase III trial LEN vs LEN+EA", "assay_type": "in vivo, human", "from_the_text": "Treatment with rhu-Epo ameliorates anemia in a subset of LR-MDS patients, however, effective salvage therapy is limited. LEN promotes erythroid lineage competence and expansion of primitive erythroid precursors in vitro. In the MDS-002 and MDS-005 trials, treatment with LEN improved erythropoiesis, yielding RBC transfusion-independence in 26% of azanucleoside-naive, transfusion-dependent (TD) LR, non-del(5q) MDS patients for a median of 10.2 and 7.75 months, respectively. LEN restores Epo-responsiveness in MDS progenitors by inducing the formation of lipid rafts enriched for signaling competent JAK2/Epo-receptor complexes with exclusion of large isoforms of the JAK2/lyn kinase-phosphatase CD45 generated by alternative splicing (McGraw K, et. al. PLoS One 2014). […] To test this hypothesis, randomized phase III trial was performed comparing treatment with LEN to LEN+EA in LR non-del(5q) MDS patients who were refractory to, or not candidates for treatment with rhEpo.\nPatients with Low or Intermediate-1 (Int-1) risk IPSS MDS with hemoglobin <9.5 g/dL who were unresponsive to rhEpo treatment or were TD (>2 units/mo) with serum Epo >500 mU/mL were eligible for study. Patients were stratified by serum Epo level and prior rhEpo (EA vs. darbepoetin vs. none) then randomized to treatment with LEN 10 mg/d×21d q4 wk (Arm A) or LEN+EA 60,000 U SC/wk (Arm B). Primary endpoint was IWG 2006 major erythroid response (MER) rate after 4 cycles. Arm A non-responders were offered cross-over to combined therapy. Secondary endpoints included analysis of response biomarkers."}, "[2]": {"system": "lower risk MDS patients who have failed treatment with rhu-EPO", "conditions": "cited from earlier work"}},
  "data": [
    {"smiles": "Nc1cccc2c1CN(C1CCC(=O)NC1=O)C2=O", "note": "(stereo not drawn) [lenalidomide, 3-(4-amino-1-oxo-1,3-dihydro-2H-isoindol-2-yl)piperidine-2,6-dione]", "values": [
      {"measurement": "EPO-induced phosphorylation of STAT5", "setting": "STAT5; Western immunoblot, lenalidomide followed by EPO", "value": "increased"},
      {"measurement": "STAT5 phosphorylation", "setting": "STAT5; lenalidomide alone", "value": "no effect"},
      {"measurement": "MER rate among patients evaluable at week 16", "setting": "[1]; 116 evaluable patients, P=0.018", "value": 14.3, "unit": "%"},
      {"measurement": "major erythroid response (MER) rate, ITT analysis", "setting": "[1]; IWG 2006 MER, interim analysis of 163 patients, P=0.015", "value": 9.9, "unit": "%"},
      {"measurement": "median duration of response", "setting": "[1]; MER responders", "value": "not reached"},
      {"measurement": "cytogenetic response", "setting": "[2]; del5q patients", "value": 74, "unit": "%"},
      {"measurement": "transfusion-independence", "setting": "[2]; del5q patients", "value": 67, "unit": "%"},
      {"measurement": "erythroid response", "setting": "[2]; patients with chromosome 5q31 interstitial deletion (del5q)", "value": 76, "unit": "%"},
      {"measurement": "MER rate", "setting": "[2]; patients with normal or alternate karyotypes", "value": "25-30%"}
    ]}
  ]
}
